Reference: ChEMBL document CHEMBL1275486, “Kinetic characterization of VIM-7, a divergent member of the VIM metallo-beta-lactamase family” (Antimicrob Agents Chemother, 2008)

How the values were obtained:
Escherichia coli [1] = assay: Activity of Escherichia coli beta-lactamase VIM-1 by spectrophotometry
Escherichia coli [2] = assay: Ratio of Kcat to Km for Escherichia coli beta-lactamase VIM-1 by spectrophotometry

Km (Escherichia coli [1]): 30 µM | kcat (Escherichia coli [1]): 315 s⁻¹ | kcat/Km (Escherichia coli [2]): 1.05e+07 M⁻¹ s⁻¹
SMILES: O=C(Cc1cccs1)N[C@@H]1C(=O)N2C(C(=O)[O-])=C(C[n+]3ccccc3)CS[C@H]12
